Columns and labels:
PTP1B and SHP1 = assay: Western blot of PTP1B and SHP1 in KYSE-520 cells; format: cell-based; conditions: 16 h
Experimental: (§1) HEK293, SKBR3, U2OS, MCF7 and A549 cells were grown in DMEM supplemented with 10% FBS, penicillin (50 units/mL), and streptomycin (50 μg/mL) in a 37 °C incubator containing 5% CO2. KYSE-520 and H358 cells were grown in RPMI-1640 supplemented with 10% FBS, penicillin (50 units/mL), and streptomycin (50 μg/mL) in a 37 °C incubator containing 5% CO2. For western-blot analysis, protein samples were separated by SDS-PAGE, transferred to nitrocellulose membranes, and incubated overnight at 4 °C with corresponding primary antibodies diluted in 5% BSA in phosphate-buffered saline Tween (PBST). SuperSignal™ West Pico PLUS (PI34580; Thermo Scientific) was used to visualize the antibodies in the bioanalytical imaging system (Azure Biosystems c500). Anti-p-ERK1/2 (T202/Y204) (4370), and anti-ERK1/2 (4696) were purchased from Cell Signaling Technology. Anti-GAPDH (sc-365062), anti-SHP2 (sc-7384), anti-SHP1 (sc-7289), and anti-Actin (sc-8432) antibodies were purchased from Santa Cruz. Anti-PTP1B (ab244207) antibody was purchased from Abcam. For colony formation assay, a total of approximately 200–500 cells were seeded to each well in a 12-well plate. The wells were then treated with DMSO, compound P9 and 3 at 37 °C for 3 weeks, gently washed, and stained with crystal violet.

ERK1/2, AKT, β-Actin = assay: Western blot of other signaling proteins in HEK293 cells; format: cell-based, human; conditions: 1 μM P9, 16 h
Experimental: as §1

SHP1 = SHP1 (Homo sapiens, UniProt P29350); assay: PTP inhibition assay (pNPP); format: biochemical
Experimental: (§2) PTP activity was assayed using p-nitrophenyl phosphate (pNPP) as a substrate in DMG buffer (50 mM DMG, pH 7.0, 1 mM EDTA, 150 mM NaCl, 2 mM DTT, 0.1 mg/mL BSA) at 25 °C. The assays were performed in 96-well plates. To determine the IC50 values, the reaction was initiated by the addition of enzyme (final concentration = 10 nM) to a reaction mixture (0.2 mL) containing pNPP (at a final concentration close to the Kms of tested enzymes, in specific: 0.05 mM for CDC-14A; 0.5 mM for FAP-1; 2 mM for TC-PTP, PTP1B, STEP, LWM-PTP, and PTPα; 3 mM for SHP1; 4 mM for Laforin; 5 mM for LYP, CD45, and VHR; 6 mM for PTP-MEG2 and HePTP) with various concentrations of inhibitors. The reaction rate was measured using a SpectraMax Plus 384 Microplate Spectrophotometer (Molecular Devices, San Jose, CA, USA). Data were fitted using the SigmaPlot Enzyme Kinetics Module (Systat Software, Inc., San Jose, CA, USA).

STEP = STEP (Homo sapiens, UniProt P54829); assay: PTP inhibition assay (pNPP); format: biochemical
Chain of STEP (P54829 whole entry, species assumed): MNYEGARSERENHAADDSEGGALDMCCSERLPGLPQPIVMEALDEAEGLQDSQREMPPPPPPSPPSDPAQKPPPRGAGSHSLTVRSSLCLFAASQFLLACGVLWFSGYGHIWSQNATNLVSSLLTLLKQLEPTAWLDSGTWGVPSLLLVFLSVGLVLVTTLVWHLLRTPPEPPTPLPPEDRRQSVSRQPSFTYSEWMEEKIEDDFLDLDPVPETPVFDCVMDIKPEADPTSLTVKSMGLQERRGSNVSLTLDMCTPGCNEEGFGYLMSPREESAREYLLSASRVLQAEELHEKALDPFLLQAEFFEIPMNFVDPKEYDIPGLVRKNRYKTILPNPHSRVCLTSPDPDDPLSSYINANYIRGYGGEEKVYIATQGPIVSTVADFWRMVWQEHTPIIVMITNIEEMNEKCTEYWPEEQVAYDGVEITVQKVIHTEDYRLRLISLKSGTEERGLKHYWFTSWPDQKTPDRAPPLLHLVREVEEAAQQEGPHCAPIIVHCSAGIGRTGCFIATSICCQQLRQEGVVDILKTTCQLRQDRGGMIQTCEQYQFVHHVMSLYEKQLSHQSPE
Experimental: as §2

TC-PTP = TC-PTP (Homo sapiens, UniProt P17706); assay: PTP inhibition assay (pNPP); format: biochemical
Chain of TC-PTP (P17706 whole entry, species assumed): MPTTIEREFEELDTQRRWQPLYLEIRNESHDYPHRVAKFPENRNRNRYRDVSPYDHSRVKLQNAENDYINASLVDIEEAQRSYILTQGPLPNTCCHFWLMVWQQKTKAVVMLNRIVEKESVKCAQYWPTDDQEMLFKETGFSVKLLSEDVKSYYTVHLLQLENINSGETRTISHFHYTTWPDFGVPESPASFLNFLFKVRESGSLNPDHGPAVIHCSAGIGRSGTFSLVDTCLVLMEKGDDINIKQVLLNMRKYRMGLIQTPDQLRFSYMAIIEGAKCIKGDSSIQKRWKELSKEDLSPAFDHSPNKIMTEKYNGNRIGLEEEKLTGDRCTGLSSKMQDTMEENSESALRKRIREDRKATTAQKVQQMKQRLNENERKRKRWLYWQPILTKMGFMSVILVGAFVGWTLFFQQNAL
Experimental: as §2

CDC-14A = CDC-14A (Homo sapiens, UniProt Q9UNH5); assay: PTP inhibition assay (pNPP); format: biochemical
Chain of CDC-14A (Q9UNH5 whole entry, species assumed): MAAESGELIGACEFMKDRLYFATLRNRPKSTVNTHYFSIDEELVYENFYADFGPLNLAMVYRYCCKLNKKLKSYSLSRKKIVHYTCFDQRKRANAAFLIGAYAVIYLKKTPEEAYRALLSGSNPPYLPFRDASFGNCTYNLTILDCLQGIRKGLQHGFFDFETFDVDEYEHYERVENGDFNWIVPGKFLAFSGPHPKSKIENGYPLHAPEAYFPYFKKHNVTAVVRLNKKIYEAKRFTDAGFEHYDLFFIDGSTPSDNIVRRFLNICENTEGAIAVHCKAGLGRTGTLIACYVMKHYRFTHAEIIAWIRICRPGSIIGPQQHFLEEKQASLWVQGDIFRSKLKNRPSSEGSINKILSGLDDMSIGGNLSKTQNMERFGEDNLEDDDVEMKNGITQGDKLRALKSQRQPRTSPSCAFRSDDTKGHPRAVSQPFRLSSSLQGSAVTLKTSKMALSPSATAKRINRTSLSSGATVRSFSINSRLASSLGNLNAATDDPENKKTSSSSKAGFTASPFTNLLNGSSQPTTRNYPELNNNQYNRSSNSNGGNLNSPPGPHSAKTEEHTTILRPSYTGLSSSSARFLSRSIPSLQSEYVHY
Experimental: as §2

LYP = LYP (Homo sapiens, UniProt Q9Y2R2); assay: PTP inhibition assay (pNPP); format: biochemical
Experimental: as §2

FAP-1 = FAP-1 (Homo sapiens, UniProt Q12923); assay: PTP inhibition assay (pNPP); format: biochemical
Experimental: as §2

PTP1B = PTP1B (Homo sapiens, UniProt P18031); assay: PTP inhibition assay (pNPP); format: biochemical
Chain of PTP1B (P18031 whole entry, species assumed): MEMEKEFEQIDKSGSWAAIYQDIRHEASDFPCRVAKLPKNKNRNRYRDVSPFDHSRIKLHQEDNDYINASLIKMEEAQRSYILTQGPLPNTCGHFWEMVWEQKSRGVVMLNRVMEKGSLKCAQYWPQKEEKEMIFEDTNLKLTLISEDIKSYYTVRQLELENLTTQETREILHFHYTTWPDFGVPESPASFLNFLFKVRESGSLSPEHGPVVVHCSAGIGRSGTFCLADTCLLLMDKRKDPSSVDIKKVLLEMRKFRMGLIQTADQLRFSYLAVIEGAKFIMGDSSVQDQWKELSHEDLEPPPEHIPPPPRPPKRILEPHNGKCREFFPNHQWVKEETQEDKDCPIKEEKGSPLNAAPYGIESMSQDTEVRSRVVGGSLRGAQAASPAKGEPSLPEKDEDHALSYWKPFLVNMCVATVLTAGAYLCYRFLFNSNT
Experimental: as §2

VHR = VHR (Homo sapiens, UniProt P51452); assay: PTP inhibition assay (pNPP); format: biochemical
Chain of VHR (P51452 whole entry, species assumed): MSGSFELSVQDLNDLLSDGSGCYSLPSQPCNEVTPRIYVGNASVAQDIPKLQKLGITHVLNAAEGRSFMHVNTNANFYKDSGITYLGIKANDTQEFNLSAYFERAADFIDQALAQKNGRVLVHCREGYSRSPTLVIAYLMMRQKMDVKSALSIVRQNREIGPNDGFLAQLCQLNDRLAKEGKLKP
Experimental: as §2

LMW-PTP = LMW-PTP (Homo sapiens, UniProt P24666); assay: PTP inhibition assay (pNPP); format: biochemical
Chain of LMW-PTP (P24666 whole entry, species assumed): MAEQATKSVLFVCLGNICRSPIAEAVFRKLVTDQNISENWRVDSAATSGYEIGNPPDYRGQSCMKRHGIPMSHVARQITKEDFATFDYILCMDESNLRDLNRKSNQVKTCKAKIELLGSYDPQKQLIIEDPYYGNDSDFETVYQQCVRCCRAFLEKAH
Experimental: as §2

PTP-MEG2 = PTP-MEG2 (Homo sapiens, UniProt P43378); assay: PTP inhibition assay (pNPP); format: biochemical
Chain of PTP-MEG2 (P43378 whole entry): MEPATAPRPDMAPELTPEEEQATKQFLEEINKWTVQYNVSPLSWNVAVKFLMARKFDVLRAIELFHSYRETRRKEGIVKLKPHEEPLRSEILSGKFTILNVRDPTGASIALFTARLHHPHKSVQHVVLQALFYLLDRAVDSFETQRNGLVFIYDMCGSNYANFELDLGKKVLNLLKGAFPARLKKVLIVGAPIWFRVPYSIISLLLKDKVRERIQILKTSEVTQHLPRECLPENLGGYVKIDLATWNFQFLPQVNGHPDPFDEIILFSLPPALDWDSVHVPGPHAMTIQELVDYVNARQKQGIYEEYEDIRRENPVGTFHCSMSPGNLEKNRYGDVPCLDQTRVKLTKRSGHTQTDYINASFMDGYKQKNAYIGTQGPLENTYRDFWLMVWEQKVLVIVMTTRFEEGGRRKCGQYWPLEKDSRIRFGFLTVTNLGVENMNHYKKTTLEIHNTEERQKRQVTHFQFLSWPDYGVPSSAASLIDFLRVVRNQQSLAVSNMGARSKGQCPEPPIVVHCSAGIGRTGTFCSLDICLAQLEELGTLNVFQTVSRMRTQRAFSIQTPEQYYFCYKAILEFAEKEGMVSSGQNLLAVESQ
Experimental: as §2

HePTP = HePTP (Homo sapiens, UniProt P35236); assay: PTP inhibition assay (pNPP); format: biochemical
Chain of HePTP (P35236 whole entry, species assumed): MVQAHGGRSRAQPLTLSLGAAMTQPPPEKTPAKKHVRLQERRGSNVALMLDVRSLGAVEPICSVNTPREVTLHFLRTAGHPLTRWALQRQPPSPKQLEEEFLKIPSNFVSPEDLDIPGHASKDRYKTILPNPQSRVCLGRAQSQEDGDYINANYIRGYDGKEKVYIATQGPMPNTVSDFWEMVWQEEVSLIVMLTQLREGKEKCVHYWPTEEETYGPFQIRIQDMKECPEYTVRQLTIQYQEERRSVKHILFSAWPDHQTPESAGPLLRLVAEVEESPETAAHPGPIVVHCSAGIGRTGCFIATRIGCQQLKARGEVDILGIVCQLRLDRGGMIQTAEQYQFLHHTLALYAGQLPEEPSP
Experimental: as §2

PTP-α = PTP-α (Homo sapiens, UniProt P18433); assay: PTP inhibition assay (pNPP); format: biochemical
Experimental: as §2

Laforin = Laforin (Homo sapiens, UniProt O95278); assay: PTP inhibition assay (pNPP); format: biochemical
Chain of Laforin (O95278 whole entry, species assumed): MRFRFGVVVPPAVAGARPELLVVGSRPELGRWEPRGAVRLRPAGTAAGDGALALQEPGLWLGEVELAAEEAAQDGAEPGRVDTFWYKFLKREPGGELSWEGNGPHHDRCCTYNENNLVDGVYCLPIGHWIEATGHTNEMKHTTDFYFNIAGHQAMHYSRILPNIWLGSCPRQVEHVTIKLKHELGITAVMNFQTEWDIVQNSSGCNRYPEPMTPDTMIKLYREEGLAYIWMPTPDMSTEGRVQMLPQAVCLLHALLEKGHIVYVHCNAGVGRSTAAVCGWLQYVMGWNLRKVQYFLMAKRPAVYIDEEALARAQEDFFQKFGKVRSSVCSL
Experimental: as §2

CD45 = CD45 (Homo sapiens, UniProt P08575); assay: PTP inhibition assay (pNPP); format: biochemical
Chain of CD45 (P08575 26-1306, species assumed): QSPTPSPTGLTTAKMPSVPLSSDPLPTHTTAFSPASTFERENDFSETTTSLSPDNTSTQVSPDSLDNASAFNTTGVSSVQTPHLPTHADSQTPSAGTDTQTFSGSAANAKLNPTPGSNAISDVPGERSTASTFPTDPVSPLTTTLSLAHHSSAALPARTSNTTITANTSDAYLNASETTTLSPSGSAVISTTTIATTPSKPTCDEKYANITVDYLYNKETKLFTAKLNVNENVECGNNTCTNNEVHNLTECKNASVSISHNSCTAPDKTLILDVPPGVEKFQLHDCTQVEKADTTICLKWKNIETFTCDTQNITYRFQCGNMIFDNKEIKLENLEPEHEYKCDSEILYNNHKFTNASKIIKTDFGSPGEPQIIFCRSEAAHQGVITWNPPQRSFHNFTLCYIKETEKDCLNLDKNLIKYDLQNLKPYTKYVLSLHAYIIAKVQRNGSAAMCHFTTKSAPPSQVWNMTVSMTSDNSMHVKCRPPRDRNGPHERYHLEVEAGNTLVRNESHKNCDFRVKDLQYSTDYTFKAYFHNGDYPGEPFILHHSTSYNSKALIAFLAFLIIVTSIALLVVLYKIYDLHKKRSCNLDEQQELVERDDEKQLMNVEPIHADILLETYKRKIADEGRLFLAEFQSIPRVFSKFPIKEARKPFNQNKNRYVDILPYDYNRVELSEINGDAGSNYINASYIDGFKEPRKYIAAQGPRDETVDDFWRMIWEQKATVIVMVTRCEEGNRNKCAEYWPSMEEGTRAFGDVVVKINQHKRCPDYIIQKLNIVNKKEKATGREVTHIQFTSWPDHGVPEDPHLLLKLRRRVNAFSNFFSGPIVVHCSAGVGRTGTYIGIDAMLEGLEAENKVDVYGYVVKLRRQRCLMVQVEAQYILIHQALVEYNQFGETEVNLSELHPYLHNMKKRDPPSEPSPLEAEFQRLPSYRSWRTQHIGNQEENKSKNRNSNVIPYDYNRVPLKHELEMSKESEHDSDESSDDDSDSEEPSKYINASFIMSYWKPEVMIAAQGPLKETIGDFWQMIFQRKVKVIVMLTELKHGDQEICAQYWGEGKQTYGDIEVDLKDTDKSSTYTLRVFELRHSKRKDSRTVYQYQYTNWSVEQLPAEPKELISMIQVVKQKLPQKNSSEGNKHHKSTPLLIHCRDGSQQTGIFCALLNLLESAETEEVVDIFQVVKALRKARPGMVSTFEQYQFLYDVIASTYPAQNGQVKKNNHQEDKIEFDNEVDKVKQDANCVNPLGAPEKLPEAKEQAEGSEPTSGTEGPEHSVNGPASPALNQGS
Experimental: as §2

`Cc1ncsc1-c1ccc([C@H](C)NC(=O)[C@@H]2C[C@@H](O)CN2C(=O)[C@@H](NC(=O)CCCCCCCCCN2CCN(C(=O)CCCCCC3(CN)CCN(c4cnc(Sc5cccc(Cl)c5Cl)c(N)n4)CC3)CC2)C(C)(C)C)cc1` [P9, (2S,4R)-1-((S)-2-(10-(4-(6-(1-(6-amino-5-((2,3-dichlorophenyl)thio)pyrazin-2-yl)-4-(aminomethyl)piperidin-4-yl)hexanoyl)piperazin-1-yl)decanamido)-3,3-dimethylbutanoyl)-4-hydroxy-N-((S)-1-(4-(4-methylthiazol-5-yl)phenyl)ethyl)pyrrolidine-2-carboxamide] was tested, and the “protein levels of PTP1B and SHP1” value (PTP1B and SHP1) was “not affected”, the “degradation of other signaling proteins” value (ERK1/2, AKT, β-Actin) was “did not induce any appreciable degradation” and the “Fold selectivity SHP1” value (SHP1; over SHP2) was greater than 105. For the same compound, the IC50 (SHP1; pNPP 3 mM) was greater than 10 µM, the “Fold selectivity STEP” value (STEP; over SHP2) was greater than 105 and the IC50 (STEP; pNPP 2 mM) was greater than 10 µM. For the same compound, the “Fold selectivity TC-PTP” value (TC-PTP; over SHP2) was greater than 105, the IC50 (TC-PTP; pNPP 2 mM) was greater than 10 µM and the “Fold selectivity CDC-14A” value (CDC-14A; over SHP2) was greater than 105. For the same compound, the IC50 (CDC-14A; pNPP 0.05 mM) was greater than 10 µM, the “Fold selectivity LYP” value (LYP; over SHP2) was greater than 105 and the IC50 (LYP; pNPP 5 mM) was greater than 10 µM. For the same compound, the “Fold selectivity FAP-1” value (FAP-1; over SHP2) was greater than 105, the IC50 (FAP-1; pNPP 0.5 mM) was greater than 10 µM and the “Fold selectivity PTP1B” value (PTP1B; over SHP2) was greater than 105. The IC50 (PTP1B; pNPP 2 mM) was greater than 10 µM, the “Fold selectivity VHR” value (VHR; over SHP2) was greater than 105 and the IC50 (VHR; pNPP 5 mM) was greater than 10 µM. For the same compound, the “Fold selectivity LMW-PTP” value (LMW-PTP; over SHP2) was greater than 105, the IC50 (LMW-PTP; pNPP 2 mM) was greater than 10 µM and the “Fold selectivity PTP-MEG2” value (PTP-MEG2; over SHP2) was greater than 105. The IC50 (PTP-MEG2; pNPP 6 mM) was greater than 10 µM, the “Fold selectivity HePTP” value (HePTP; over SHP2) was greater than 105 and the IC50 (HePTP; pNPP 6 mM) was greater than 10 µM. The “Fold selectivity PTP-α” value (PTP-α; over SHP2) was greater than 105, the IC50 (PTP-α; pNPP 2 mM) was greater than 10 µM and the “Fold selectivity Laforin” value (Laforin; over SHP2) was greater than 105. The IC50 (Laforin; pNPP 4 mM) was greater than 10 µM, the “Fold selectivity CD45” value (CD45; over SHP2) was greater than 105 and the IC50 (CD45; pNPP 5 mM) was greater than 10 µM.

— article PMC10574094, “Discovery of a SHP2 Degrader with In Vivo Anti-Tumor Activity” (Molecules, 2023)
